From patent EP4813993A1, “COMPOUND, PREPARATION METHOD THEREFOR, AND USE THEREOF” (Sichuan Kelun Pharmaceutical Research Institute Co., Ltd., priority 2023, dated 2025) come the findings set out here.

For orientation: IC50 means the concentration that inhibits the measured activity by half. The low end stands for inhibition by little substance, the high end for a need for much substance. Broadly, the AUC(0-inf) is total exposure, with the tail of the curve extrapolated. A low value points to low exposure.

One series has as its target T1, Nav1.8 channels (Homo sapiens, UniProt Q9Y5Y9).
T1 construct: expressed in transfected cells
As to the kind of experiment: Manual patch-clamp, current of stably overexpressed Nav1.8 channels (resting state voltage program). In kind it is cell-based. In outline: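 Whole-cell manual patch clamp on cells stably overexpressing Nav1.8, held at -120 mV and stepped to 0 mV for 50 ms every 20 s (resting-state protocol). Compounds were perfused in ascending concentrations, each for 5 min or until stable; block of peak current was calculated at steady state.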

The nature of series [1]: Pharmacokinetic study in ICR mice. Format: in vivo. The note with it: male, mouse, plasma. As for the experimental part: Experimental Example 3: Pharmacokinetic study of compounds in ICR mice
(§1) Experimental animals: ICR mice, male, 6-8 weeks old.
(§2) Compound preparation: 5% (final preparation volume) of DMSO was added to dissolve the test compound, and then 10% (final preparation volume) of Cremophor EL and 85% Saline were sequentially added.
The injection group was given free access to food and water. The oral group was fasted overnight (> 12 h) with free access to water, and was fed 4 h after administration. Blood samples were collected from the jugular vein of ICR mice at the following time points: 5 min, 15 min, 0.5 h, 1 h, 2 h, 4 h, 8 h, and 24 h after injection administration; 15 min, 0.5 h, 1 h, 2 h, 4 h, 6 h, 8 h, and 24 h after oral administration. The collected blood samples were anticoagulated, placed in an ice bath, and then centrifuged for 5 min to separate plasma. The plasma was stored at -70 °C for analysis.
Sample test: The concentrations of the designated compound drugs in plasma were determined by the LC-MS/MS method; the main pharmacokinetic parameters were calculated using the Winnolin 8.3 non-compartmental model. Pharmacokinetic test results of some compounds of the present disclosure in ICR mice

The nature of series [2]: Tissue distribution study (dorsal root ganglia) in ICR mice. To be noted: male, mouse, oral administration 20 mg/kg. Format: in vivo. As for the experimental part: Experimental Example 4: Tissue distribution study of compounds in ICR mice
as §1, §2
Experimental design: The test compounds were administered to ICR mice as a single dose via oral administration (20 mg/kg; n = 3, 3 time points). Blood samples were collected at 0.25 h, 2 h, and 12 h after oral administration, followed by sacrifice of the animals. Dorsal root ganglia (DRG) were collected, rinsed with ice-cold normal saline to remove residual blood, blotted dry with absorbent paper, and stored at -70 °C for analysis.
Sample test: The concentrations of the compound drugs in dorsal root ganglia were determined by the LC-MS/MS method.

The test system of series [3] is acetic acid writhing model. The series is described as follows: Mouse acetic acid writhing model. In kind it is in vivo, ICR mice. The note with it: for Number of writhing responses: 60 min before 0.8% acetic acid i.p., 30 min observation, Mean + SD, n = 10. On the procedure:
Experimental Example 11: Pharmacodynamic effect study of compounds in mouse acetic acid writhing model
Experimental animals: ICR mice, male, 20-24 g.
Compound preparation: 5% (final preparation volume) of DMSO was added to dissolve the test compound, and then 10% (final preparation volume) of Cremophor EL and 85% Saline were sequentially added; an appropriate amount of Etoricoxib was weighed, 5% (final preparation volume) of DMSO was added to dissolve the test compound, and then 5% (final preparation volume) of HS-15 and 90% Saline were sequentially added.
• 1. The mice were randomly grouped based on the body weight for model establishment, with 10 animals per group. A 0.8% (v/v) acetic acid solution was intraperitoneally injected at an injection volume of 10 mL/kg. • 2. Administration and test
Administration was performed 60 min before modeling. After the acetic acid solution was injected, the number of writhing responses in mice was observed. […] The number of writhing responses was observed and recorded during two intervals: 0-15 min and 15-30 min, with a total observation duration of 30 min. Inhibition rate = (number of writhing responses in control group - number of writhing responses in administration group)/number of writhing responses in control group × 100%. The model control group was given normal saline, the positive control group 1 was given etoricoxib at 20 mg/kg, the positive control group 2 was given VX-548 at 50 mg/kg, and the remaining groups were given the compounds of the present disclosure according to the administration doses in the table below.

For another series, the system named is formalin pain model. The series is described as follows: Rat formalin pain model. Format: in vivo, SD rats. To be noted: for Number of pain responses 0 min / Number of pain responses 10 min / Number of pain responses 15 min / Number of pain responses 30 min / Number of pain responses 40 min / Number of pain responses 50 min / Number of pain responses 60 min: SD rats, Mean + SD, n = 10. On the procedure: Experimental Example 10: Pharmacodynamic effect study of compounds in rat formalin pain model
Experimental animals: SD rats, male, 180-200 g.
Compound preparation: 5% (final preparation volume) of DMSO was added to dissolve the test compound, and then 10% (final preparation volume) of Cremophor EL and 85% Saline were sequentially added; an appropriate amount of Etoricoxib was weighed, 5% (final preparation volume) of DMSO was added to dissolve the test compound, and then 5% (final preparation volume) of HS-15 and 90% Saline were sequentially added; the tramadol injection was diluted with normal saline to the desired concentration.
Each group consisted of 10 animals, and 50 µL of a 5% formalin solution was injected using a microsyringe into the right plantar region.
(§3) 2. Administration and test
Based on different pharmacokinetic properties of the drugs, the administration was performed at 0 min, 60 min, and 120 min before modeling. After injection of the formalin, the number of pain responses in the rats was observed. […] Spontaneous pain responses were observed once every 5 min, and the number of pain responses in the rats within 1 min was counted, with a total observation duration of 60 min. Inhibition rate = (number of pain responses in control group - number of pain responses in administration group)/number of pain responses in control group × 100%.
Table 12. Administration information of compounds of the present disclosure in rat formalin model

The next series deals with incision pain model. The series is described as follows: Incision pain model in SD rats, Von Frey test. Format: in vivo. The note with it: SD rats, Mean + SEM, n = 10. On the procedure:
Experimental Example 7: Pharmacodynamic effect study of compounds in incision pain model in SD rats
Experimental animals: SD rats, male, 180-220 g.
as §2
A plantar incision pain model was established in rats via surgery before the administration and test. Rats were placed in an anesthesia induction chamber and given 3%-4% isoflurane for anesthesia induction. After the anesthesia induction, a breathing mask was applied, and the isoflurane concentration was adjusted to 1%-2% to prevent the rats from suffering pain during the surgery. Each rat was placed in a supine position, and the surgical site was disinfected with alcohol and iodophor. Under sterile conditions, a 0.5 cm longitudinal incision was made on the left hind paw surface, 0.2 cm away from the heel, extending toward the toes. The skin and fascia were incised; the plantar muscle was separated, slightly lifted, and longitudinally incised. The skin was then sutured with 5-0 sutures and disinfected.
as §3
The Von Frey test was performed once before the surgery. On the second day after animal modeling, the test was repeated, and animals meeting the baseline requirements were selected for enrollment. The animals were randomly divided into 6 groups based on the 50% PWT values, with 10 animals per group. Administration was performed under a double-blind test protocol. The 50% PWT of the animals was measured separately before administration (baseline) and at 0.5 h, 2 h, 4 h, 6 h, or 8 h after administration, and a single dose was administered. The model control group was given normal saline, while the compound groups were given the compounds according to the administration doses in the table below.

The mark [4] stands for this setting: 30 mg/kg p.o. 60 min before 5% formalin.
The mark [5] stands for this setting: 125 mg/kg p.o. 120 min before 5% formalin.

T1 sequence (Q9Y5Y9 whole entry): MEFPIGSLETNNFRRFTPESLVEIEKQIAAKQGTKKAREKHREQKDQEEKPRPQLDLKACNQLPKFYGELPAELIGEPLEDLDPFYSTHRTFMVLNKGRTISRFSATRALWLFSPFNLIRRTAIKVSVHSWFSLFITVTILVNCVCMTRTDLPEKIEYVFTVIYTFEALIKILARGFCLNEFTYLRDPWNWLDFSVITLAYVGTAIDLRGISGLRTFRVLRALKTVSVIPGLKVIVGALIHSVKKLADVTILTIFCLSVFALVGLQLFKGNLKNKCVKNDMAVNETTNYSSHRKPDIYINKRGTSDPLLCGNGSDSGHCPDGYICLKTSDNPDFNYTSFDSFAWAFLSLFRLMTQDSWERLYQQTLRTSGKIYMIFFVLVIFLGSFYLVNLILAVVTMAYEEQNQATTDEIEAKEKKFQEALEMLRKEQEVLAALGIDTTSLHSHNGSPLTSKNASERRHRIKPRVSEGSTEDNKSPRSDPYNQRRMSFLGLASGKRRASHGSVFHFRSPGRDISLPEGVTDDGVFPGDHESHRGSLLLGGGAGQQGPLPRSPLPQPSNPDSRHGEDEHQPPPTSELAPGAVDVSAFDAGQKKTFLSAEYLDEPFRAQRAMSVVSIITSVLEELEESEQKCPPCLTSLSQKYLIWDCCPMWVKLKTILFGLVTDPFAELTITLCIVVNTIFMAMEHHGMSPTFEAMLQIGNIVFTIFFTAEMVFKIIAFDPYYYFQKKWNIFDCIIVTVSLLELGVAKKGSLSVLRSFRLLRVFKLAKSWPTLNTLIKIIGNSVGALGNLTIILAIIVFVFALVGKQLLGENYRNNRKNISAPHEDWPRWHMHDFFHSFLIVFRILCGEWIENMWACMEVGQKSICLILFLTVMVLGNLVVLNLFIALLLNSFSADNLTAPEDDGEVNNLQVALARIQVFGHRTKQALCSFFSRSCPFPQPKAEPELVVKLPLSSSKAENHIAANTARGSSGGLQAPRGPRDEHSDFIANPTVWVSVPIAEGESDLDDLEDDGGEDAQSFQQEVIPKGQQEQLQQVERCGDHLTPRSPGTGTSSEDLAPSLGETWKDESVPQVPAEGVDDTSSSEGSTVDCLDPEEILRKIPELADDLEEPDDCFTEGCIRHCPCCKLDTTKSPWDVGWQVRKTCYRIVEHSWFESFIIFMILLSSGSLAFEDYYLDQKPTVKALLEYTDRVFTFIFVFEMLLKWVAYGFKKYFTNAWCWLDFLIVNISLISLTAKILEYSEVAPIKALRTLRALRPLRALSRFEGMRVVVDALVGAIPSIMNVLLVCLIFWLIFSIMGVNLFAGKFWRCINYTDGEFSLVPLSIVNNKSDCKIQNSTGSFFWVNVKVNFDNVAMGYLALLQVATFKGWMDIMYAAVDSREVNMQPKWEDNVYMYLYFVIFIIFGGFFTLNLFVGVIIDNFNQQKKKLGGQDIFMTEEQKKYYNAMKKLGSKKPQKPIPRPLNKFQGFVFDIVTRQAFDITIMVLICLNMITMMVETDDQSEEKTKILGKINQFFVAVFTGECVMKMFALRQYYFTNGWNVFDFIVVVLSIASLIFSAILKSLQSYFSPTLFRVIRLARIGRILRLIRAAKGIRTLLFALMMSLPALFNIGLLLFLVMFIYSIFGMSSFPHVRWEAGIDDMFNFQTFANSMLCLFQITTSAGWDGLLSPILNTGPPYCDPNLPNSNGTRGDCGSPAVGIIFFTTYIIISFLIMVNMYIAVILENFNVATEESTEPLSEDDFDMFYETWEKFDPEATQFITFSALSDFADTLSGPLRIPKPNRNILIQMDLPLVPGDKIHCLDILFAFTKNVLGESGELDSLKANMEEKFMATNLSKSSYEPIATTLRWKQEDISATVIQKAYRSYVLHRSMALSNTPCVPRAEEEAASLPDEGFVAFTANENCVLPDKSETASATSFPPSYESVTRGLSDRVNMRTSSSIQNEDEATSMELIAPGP

With `COc1c([C@@H]2C[C@](C)(C(F)(F)F)S[C@H]2C(=O)Nc2ccc3c(c2)COB3O)ccc(F)c1F` [Compound 119-A, (2R,3S,5R)-3-(3,4-difluoro-2-methoxyphenyl)-N-(1-hydroxy-1,3-dihydrobenzo[c][1,2]oxaborol-5-yl)-5-methyl-5-(trifluoromethyl)tetrahydrothiophene-2-carboxamide], half-maximal inhibition against Nav1.8 channels (IC50) was put at 0.49 nM. The AUC(0-inf) in series [1] (Oral administration (p.o.), 20 mg/kg) was 6740 ng·h/mL; in series [1] (iv, Injection (i.v.), 2 mg/kg), 842 ng·h/mL. The concentration at 0.25 h in series [2] (Time 0.25 h) was 875 ng/g. The concentration at 2 h in series [2] (Time 2 h) is 2580 ng/g. Also, the concentration at 12 h in series [2] (Time 12 h) was determined as 199 ng/g. Moreover, the “Number of writhing responses” value in series [3] (ICR mice, Dose 50 mg/kg) worked out at 18 ± 15. Also, the “inhibition of the writhing effect compared with VX-548” value in series [3] (mouse acetic acid writhing model) is reported as “better than VX-548”.

`Cc1ccc(-c2ncc(Cl)cc2-c2ccc(S(C)(=O)=O)cc2)cn1` [Etoricoxib]: in the series on formalin pain model (setting [4]), the “Number of pain responses 0 min” value came to 37.5±9.2, the “Number of pain responses 10 min” value came out at 2.0±2.4, the “Number of pain responses 15 min” value is given as 10.1±4.0 and the “Number of pain responses 30 min” value was determined as 14.3±5.3. For the same compound, in the series with formalin pain model (setting [4]), the “Number of pain responses 40 min” value was found to be 10.8±6.2, the “Number of pain responses 50 min” value stood at 5.1±8.5 and the “Number of pain responses 60 min” value was 3.3±3.7. The “analgesic activity in the first and second phases” value with formalin pain model (rat formalin pain model, first phase immediately after injection, second phase about 15-20 min after) is “superior analgesic effects in the first and second phases, respectively”. Moreover, in series [3] (ICR mice, Dose 20 mg/kg), the “Number of writhing responses” value is on record as 29 ± 11.

Regarding `COc1c([C@H]2[C@H](C(=O)Nc3ccnc(C(N)=O)c3)O[C@@](C)(C(F)(F)F)[C@H]2C)ccc(F)c1F` [VX-548, reference compound], the “PWT 50% value (g) Post-surgery, Preadministration” value with incision pain model (125 mg/kg group, baseline before administration) was determined as 3.95 ± 1.19 g. For the same compound, the “PWT 50% value (g) Pre-surgery” value with incision pain model (125 mg/kg group, baseline before surgery) was 14.09 ± 1.46 g. In addition, the “PWT 50% value (g) Time 0.5 h” value with incision pain model (125 mg/kg single dose, 0.5 h after administration) was found to be 7.61 ± 5.9 g. Also, the “PWT 50% value (g) Time 2 h” value in the series with incision pain model (125 mg/kg single dose, 2 h after administration) was found to be 8.97 ± 3.33 g. The “PWT 50% value (g) Time 6 h” value with incision pain model (125 mg/kg single dose, 6 h after administration) is 6.27 ± 2.34 g. In the series on incision pain model (125 mg/kg single dose, 8 h after administration), the “PWT 50% value (g) Time 8 h” value came to 5.89 ± 2.07 g. The “PWT 50% value (g) AUC0-8h” value in the series with incision pain model (125 mg/kg single dose) was determined as 58.66 ± 10.33 g. For the same compound, in the series with formalin pain model (setting [5]), the “Number of pain responses 0 min” value is 24.3±8.5, the “Number of pain responses 10 min” value amounted to 2.4±2.8, the “Number of pain responses 15 min” value is recorded as 8.8±6.4 and the “Number of pain responses 30 min” value is 13.2±6.3. In addition, in the series with formalin pain model (setting [5]), the “Number of pain responses 40 min” value worked out at 10.1±6.9, the “Number of pain responses 50 min” value was 4.1±4.7 and the “Number of pain responses 60 min” value came out at 4.7±5.6. The “Number of writhing responses” value in series [3] (ICR mice, Dose 50 mg/kg) is reported as 29±16. The “Inhibition rate (%)” value in series [3] (ICR mice, Dose 50 mg/kg, inhibition of writhing responses vs control group) is given as 41.24%.
